# Results published in US20240197716A1, “TREATMENTS FOR CUSHING'S SYNDROME THAT DO NOT SIGNIFICANTLY AFFECT CARDIAC RHYTHMS” (Corcept Therapeutics Incorporated, priority 2022, published 2024).
# Where two headings read alike, the source gives them in different places.
# What was measured:
# healthy volunteers = assay: First-in-Human SAD/MAD study (NCT03508635), ECG / QTcF; assay type: in vivo; details: for placebo-corrected predicted change in QTc at Cmax: doses of 50, 150, 250 and 500 mg
# Description: A phase 1, 3-part, single-center, First-in-Human study (NCT03508635) included 103 healthy volunteers who received single or multiple ascending doses (SAD/MAD) of relacorilant (up to 500 mg QD) for up to 14 days; 24 received placebo.
# In all studies, ECG data were collected and the heart rate-corrected QT interval using Fridericia's formula (QTcF) was calculated. Participants with a family history of or risk factors for torsades de pointes or with a prolonged QT interval at screening were not eligible to participate. Exposure-response analysis of the effect of relacorilant on the heart-rate corrected QT interval (QTc) was conducted using a linear model with an intercept.
# In a 3-part, single-center, First-in-Human study (NCT03508635, “phase 1 study”), 103 healthy volunteers received single or multiple ascending doses of relacorilant (up to 500 mg QD) for up to 14 days; 24 received placebo. In a randomized, partial double-blind, crossover Thorough QT study (NCT04795479, “TQT study”), the effect of multiple therapeutic (400 mg QD, n=25) and supra-therapeutic (800 mg QD, n=28) doses of relacorilant on cardiac repolarization was studied in healthy volunteers. A single dose of moxifloxacin (400 mg, n=28) was used as a positive control; 29 participants received placebo. In a single-arm, open-label phase 2 study (NCT02804750, “CS study”), 17 patients with CS received low-dose relacorilant (100-200 mg QD) for 12 weeks and 18 patients received high-dose relacorilant (250-400 mg QD) for 16 weeks. In all studies, ECG data were collected, and the heart rate-corrected QT interval using Fridericia's formula (QTcF) was assessed.
# ECG data were available from 42 and 12 participants randomized to relacorilant or placebo, respectively, during the single ascending dose (SAD) phase, and from 34 and 12 participants randomized to relacorilant or placebo, respectively, during the multiple ascending dose (MAD) phase. Baseline mean (SD) QTcF values were within expectations for a healthy population (range […] (11.7) msec to 403.5 (9.4) msec) and were similar in the respective relacorilant and placebo cohorts during the SAD and MAD study phases (see Table 1) (where the value in parentheses indicates standard deviation).
# [1] = Plasma concentrations in TQT study (LC-MS/MS, non-compartmental PK); assay type: in vivo, human; details: for Cmax: human, plasma, oral, Day 5, read-out: Geometric Mean Cmax
# Description: PK analyses were performed using non-compartmental methods to obtain estimates of the following parameters, where possible: […] Day 1: Cmax, Tmax, AUClast, and AUC0-24; Day 5: Cmax, Tmax, Cmin, AUClast, AUC0-tau, Cavg, FI, and AR. For moxifloxacin: Cmax, Tmax, AUClast, and AUC0-24. […] PK blood sampling for Day 1 was completed prior to dosing on Day 2.
# [2] = tested on: Cushing's syndrome patients; assay: Separate study: relacorilant with another drug known to cause QT prolongation; assay type: in vivo, human; details: at least 12 patients also receiving fluoroquinoline, imidazole derivative, macrolide or protease inhibitor drug
# [3] = MAD, concentration-QTc linear model, FIG. 2B
# [4] = SAD, concentration-QTc linear model, FIG. 2A
compound,measurement,setting,value
"Cn1cc(S(=O)(=O)N2CCC3=Cc4c(cnn4-c4ccc(F)cc4)C[C@]3(C(=O)c3cc(C(F)(F)F)ccn3)C2)cn1 [relacorilant, ((R)-(1-(4-fluorophenyl)-6-((1-methyl-1H-pyrazol-4-yl)sulfonyl)-4,4a,5,6,7,8-hexahydro-1H-pyrazolo[3,4-g]isoquinolin-4a-yl)(4-(trifluoromethyl)pyridine-2-yl)methanone)]",MAD equation ΔΔQTcF intercept,healthy volunteers; [3],-1.804 ms
same,MAD equation ΔΔQTcF slope versus relacorilant concentration,healthy volunteers; [3],-0.00234 ms/ng/mL
same,placebo-corrected predicted change in QTc at Cmax,"healthy volunteers; MAD, FIG. 2B",less than 10 ms
same,mean ΔΔQTcF at any time point,"healthy volunteers; SAD and MAD study phases, all doses",≤ 5 ms
same,SAD equation ΔΔQTcF intercept,healthy volunteers; [4],-0.005 ms
same,SAD equation ΔΔQTcF slope versus relacorilant concentration,healthy volunteers; [4],-0.000588 ms/ng/mL
same,placebo-corrected predicted change in QTc at Cmax,"healthy volunteers; SAD, FIG. 2A",less than 5 ms
same,Mean placebo-corrected ΔQTcF (ΔΔQTcF) at any time point,healthy volunteers; any of the dosing groups,≤ 3 ms
same,prolonging effect on ΔΔQTcF exceeding the 10-msec threshold,"healthy volunteers; modeled SAD and MAD results, plasma concentrations up to approximately 4000 ng/ml",excluded
same,instances of post-dose QTcF interval>450 ms or QTcF interval increase of >30 ms,healthy volunteers; up to 500 mg QD,No instances
same,effect on ECG parameters,healthy volunteers; up to 500 mg daily,did not have a clinically relevant adverse effect on ECG parameters
same,Cmax,[1]; 400 mg QD,1830 ng/mL
same,Cmax,[1]; 800 mg QD,2710 ng/mL
same,"observed range of plasma concentrations, upper end",[1]; supra-therapeutic dosing (800 mg),~4500 ng/mL
same,QT prolongation,[2],no clinically significant QT prolongation
